Test results from patent US20090143236A1, “Method of detecting cancer cell acquiring drug-resistance” (BML, INC., priority 2004, published 2009).

Test system: SKOV3 cells and SKOV3/VP cells
Assay: Caspase activity (colorimetric CaspACE assay) of ovarian cancer cells treated with VP-16
Assay type: cell-based, Human
Conditions: 100 μg/ml VP-16, 24 hours; FIG. 4A
Experimental: Caspase activity was measured using a calorimetric CaspACE assay system (Promega Co., Madison, Wis., U.S.A.) in accordance with the instructions included therewith. SKOV3 cells and SKOV3/VP cells were cultured for 24 hours in the presence of 100 μg/ml VP-16, or VP-16 and the caspase inhibitor Z-VAD-FMK, or in the presence of only a medium (control). The cells were dissolved in a lysis buffer, and the resultant was then subjected to centrifugation at 4° C. at 15,000×g for 20 minutes. The supernatant (containing 100 μg of protein) was incubated with a substrate (Ac-DEVD-pNA) used for the measurement of caspase activity at 37° C. for 4 hours. Thereafter, the absorbance at 405 nm was measured, so as to obtain the activity.
The influence of BCL2L2 gene expression on apoptosis induced by anticancer drugs was analyzed. Human ovarian cancer SKOV3 cells and etoposide-resistant ovarian cancer SKOV3/VP cells were cultured for 24 hours in the presence of 100 μg/ml VP-16, so as to measure apoptosis associated with activation of caspase-3. […] Thereafter, in order to analyze the role of the BCL2L2 gene, the cells were treated with the antisense oligonucleotide of BCL2L2, and the influence of VP-16 was analyzed under conditions wherein expression of the BCL2L2 gene was suppressed. […]

How did the “caspase activity in etoposide-resistant SKOV3/VP cells compared with parent line SKOV3” value turn out when `COc1cc([C@@H]2c3cc4c(cc3[C@@H](O[C@@H]3O[C@@H]5CO[C@@H](C)O[C@H]5[C@H](O)[C@H]3O)[C@H]3COC(=O)[C@H]23)OCO4)cc(OC)c1O` [VP-16, etoposide] was run?
Its value is “decreased to approximately one-half”.
